Measurements from US9771368B2, “18F-labelled folates” (priority 2007, dated 2017).

Key:
folate receptor [1] = target: T1, folate receptor (Homo sapiens, UniProt P15328); experiment: ex vivo biodistribution studies in nude mice bearing KB xenografts tumors; conditions: nude mice, KB xenograft tumors; ~2 MBq radiotracer; blockade group 200 μg natural folic acid 10 min prior; 90 min post injection
T1 construct: endogenous in cells; host or cells: KB tumour xenografts in nude mice
Experimental: (§1) 2′-[^18F]fluoro-folic acid was applied in ex vivo biodistribution studies using eight nude mice bearing KB xenografts tumors. ˜2 MBq of the radiotracer were injected into each animal. In a blockade group 200 μg natural folic acid was injected 10 min prior to the radiotracer. The animals were scarified 90 min post injection.

folate receptor [2] = experiment: as above
Experimental: as §1

folate receptor [3] = experiment: in vivo PET imaging in nude mice bearing KB xenografts tumors
Experimental: In vivo PET imaging using the 2′-[^18F]fluoro-folic acid was performed in nude mice bearing KB xenografts tumors. Ca. 10 MBq of the radiotracer were injected into each animal. In the blockade group 200 μg natural folic acid was injected 10 min prior to the radiotracer. The PET scans were acquired from 30 min to 90 min post injection.

T1 sequence (P15328 25-234 limits assumed): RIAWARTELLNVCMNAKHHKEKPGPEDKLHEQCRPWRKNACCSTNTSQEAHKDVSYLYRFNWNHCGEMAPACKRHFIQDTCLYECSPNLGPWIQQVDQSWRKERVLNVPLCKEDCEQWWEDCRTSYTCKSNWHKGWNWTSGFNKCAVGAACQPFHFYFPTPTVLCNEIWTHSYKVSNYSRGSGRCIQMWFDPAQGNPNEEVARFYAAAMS

Q: What does the source list for `Nc1nc2ncc(CNc3ccc(C(=O)N[C@@H](CCC(=O)O)C(=O)O)c([18F])c3)nc2c(=O)[nH]1` [2′-[^18F]fluoro-folic acid]?
A: specific uptake of the radiotracer in folate receptor-positive KB tumors, ratio of specific blockade (folate receptor [1]): 86.6%; uptake in folate receptor-positive tissues (FIG. 1) (folate receptor [2]; ex vivo biodistribution, nude mice bearing KB xenografts): high specific uptake; specific uptake in the kidneys, specific blockade (folate receptor [2]; nude mice, kidneys, ~2 MBq radiotracer, blockade group 200 μg natural folic acid 10 min prior, 90 min post injection): 95.5%; uptake of the radiotracer in the kidney cortex (folate receptor [3]; PET, kidney cortex, 30-90 min post injection): high specific uptake; uptake of the radiotracer in the kidney medulla (folate receptor [3]; PET, kidney medulla, 30-90 min post injection): no uptake; specificity of uptake (blockade by natural folic acid) (folate receptor [3]; ca. 10 MBq, blockade group 200 μg natural folic acid 10 min prior, PET 30-90 min post injection): highly specific and blocked by natural folic acid
